Experimental data reported in US12606541B2, “PPARg modulators and methods of use” (Eisai R&D Management Co., Ltd., priority 2020, dated 2026).

Molecular target: T1, His6-TEV-PPARγ-(234-505) (Homo sapiens, UniProt P37231)
T1 construct: The His6-TEV-PPARγ-(234-505) protein for assay was expressed and purified; TEV cleavage site (N); made in house
T1 sequence (P37231 234-505): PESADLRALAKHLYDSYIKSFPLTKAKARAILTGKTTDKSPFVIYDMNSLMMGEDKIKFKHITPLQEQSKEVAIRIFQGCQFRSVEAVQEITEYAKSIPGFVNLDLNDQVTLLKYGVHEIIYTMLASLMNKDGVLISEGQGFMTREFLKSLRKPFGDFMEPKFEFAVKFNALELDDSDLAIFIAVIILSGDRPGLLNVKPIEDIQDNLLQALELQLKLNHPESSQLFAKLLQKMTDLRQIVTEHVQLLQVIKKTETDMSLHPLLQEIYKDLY
Test: TR-FRET Assay to Measure Co-R Peptide Recruitment to PPARγ
Type: biochemical
Settings: Co-R peptide recruitment to PPARγ; read-out: TR-FRET AC50
Summary of the method: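 His-tagged PPARγ (or controls) was preincubated with compound for 20 minutes at room temperature, then 5 nM anti-His terbium antibody and 200 nM FITC-labeled SMRT-ID2 corepressor peptide (final) were added for a further hour. TR-FRET signal was normalized to percent response using 500 nM T0070907 and DMSO controls.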

AC50, > 1000 nM:
O=C(Nc1ccc(Cl)cc1)C1CCN(C(=O)c2cc(-c3ccncc3)[nH]n2)CC1 [N-(4-chlorophenyl)-1-[5-(pyridin-4-yl)-1H-pyrazole-3-carbonyl]piperidine-4-carboxamide], COc1ccc(NC(=O)C2CCN(C(=O)c3cc(-c4ccncc4)[nH]n3)CC2)c(C)c1 [N-(4-methoxy-2-methylphenyl)-1-[5-(pyridin-4-yl)-1H-pyrazole-3-carbonyl]piperidine-4-carboxamide], COC1CCC(NC(=O)C2CCN(C(=O)c3cc(-c4ccncc4)[nH]n3)CC2)CC1 (stereo not shown) [N-(4-methoxycyclohexyl)-1-[5-(pyridin-4-yl)-1H-pyrazole-3-carbonyl]piperidine-4-carboxamide], COc1ccc(NC(=O)C2CCN(C(=O)c3cc(-c4ccncc4)[nH]n3)CC2)cc1 [N-(4-methoxyphenyl)-1-[5-(pyridin-4-yl)-1H-pyrazole-3-carbonyl]piperidine-4-carboxamide], COc1ccnc(NC(=O)C2CCN(C(=O)c3cc(-c4ccncc4)[nH]n3)CC2)c1 [N-(4-methoxypyridin-2-yl)-1-[5-(pyridin-4-yl)-1H-pyrazole-3-carbonyl]piperidine-4-carboxamide], CC1CCC(NC(=O)C2CCN(C(=O)c3cc(-c4ccncc4)[nH]n3)CC2)CC1 (stereo not shown) [N-(4-methylcyclohexyl)-1-[5-(pyridin-4-yl)-1H-pyrazole-3-carbonyl]piperidine-4-carboxamide], CC1CCC(NC(=O)C2CCN(C(=O)c3cc(-c4ccncn4)[nH]n3)CC2)CC1 (stereo not shown) [N-(4-methylcyclohexyl)-1-[5-(pyrimidin-4-yl)-1H-pyrazole-3-carbonyl]piperidine-4-carboxamide], CC1CCC(NC(=O)C2CCN(C(=O)c3cc(-c4ccnc(N5CCCC5)c4)[nH]n3)CC2)CC1 (stereo not shown) [N-(4-methylcyclohexyl)-1-{5-[2-(pyrrolidin-1-yl)pyridin-4-yl]-1H-pyrazole-3-carbonyl}piperidine-4-carboxamide], CC1CCC(NC(=O)C2CCN(C(=O)c3cc(-c4ccnc(C(F)(F)F)c4)[nH]n3)CC2)CC1 (stereo not shown) [N-(4-methylcyclohexyl)-1-{5-[2-(trifluoromethyl)pyridin-4-yl]-1H-pyrazole-3-carbonyl}piperidine-4-carboxamide], CC1(NC(=O)C2CCN(C(=O)c3cc(-c4ccncc4)[nH]n3)CC2)CCOCC1 [N-(4-methyloxan-4-yl)-1-[5-(pyridin-4-yl)-1H-pyrazole-3-carbonyl]piperidine-4-carboxamide], Cc1ccc(NC(=O)C2CCN(C(=O)c3cc(-c4ccncc4)[nH]n3)CC2)cc1 [N-(4-methylphenyl)-1-[5-(pyridin-4-yl)-1H-pyrazole-3-carbonyl]piperidine-4-carboxamide], O=C(NC1CCC(c2ccccc2)CC1)C1CCN(C(=O)c2cc(-c3cccnc3)[nH]n2)CC1 (stereo not shown) [N-(4-phenylcyclohexyl)-1-[5-(pyridin-3-yl)-1H-pyrazole-3-carbonyl]piperidine-4-carboxamide], O=C(NC1CCC(c2ccccc2)CC1)C1CCN(C(=O)c2cc(-c3ccncc3)[nH]n2)CC1 (stereo not shown) [N-(4-phenylcyclohexyl)-1-[5-(pyridin-4-yl)-1H-pyrazole-3-carbonyl]piperidine-4-carboxamide], O=C(Nc1ccc(F)cn1)C1CCN(C(=O)c2cc(-c3ccncc3)[nH]n2)CC1 [N-(5-fluoropyridin-2-yl)-1-[5-(pyridin-4-yl)-1H-pyrazole-3-carbonyl]piperidine-4-carboxamide], Cc1ccc(NC(=O)C2CCN(C(=O)c3cc(-c4ccncc4)[nH]n3)CC2)nn1 [N-(6-methylpyridazin-3-yl)-1-[5-(pyridin-4-yl)-1H-pyrazole-3-carbonyl]piperidine-4-carboxamide], O=C(NCC1CC1)C1CCN(C(=O)c2cc(-c3ccncc3)[nH]n2)CC1 [N-(cyclopropylmethyl)-1-[5-(pyridin-4-yl)-1H-pyrazole-3-carbonyl]piperidine-4-carboxamide], O=C(NC1CCOCC1)C1CCN(C(=O)c2cc(-c3ccncc3)[nH]n2)CC1 [N-(oxan-4-yl)-1-[5-(pyridin-4-yl)-1H-pyrazole-3-carbonyl]piperidine-4-carboxamide], CCC(CC)NC(=O)C1CCN(C(=O)c2cc(-c3ccncc3)[nH]n2)CC1 [N-(pentan-3-yl)-1-[5-(pyridin-4-yl)-1H-pyrazole-3-carbonyl]piperidine-4-carboxamide], O=C(Nc1cccnn1)C1CCN(C(=O)c2cc(-c3ccncc3)[nH]n2)CC1 [N-(pyridazin-3-yl)-1-[5-(pyridin-4-yl)-1H-pyrazole-3-carbonyl]piperidine-4-carboxamide], O=C(NCc1cnc2c(c1)CCC2)C1CCN(C(=O)c2cc(-c3ccncc3)[nH]n2)CC1 [N-({5H,6H,7H-cyclopenta[b]pyridin-3-yl}methyl)-1-[5-(pyridin-4-yl)-1H-pyrazole-3-carbonyl]piperidine-4-carboxamide], O=C(NC1(c2cccc(Cl)c2)CC1)C1CCN(C(=O)c2cc(-c3ccncc3)[nH]n2)CC1 [N-[1-(3-chlorophenyl)cyclopropyl]-1-[5-(pyridin-4-yl)-1H-pyrazole-3-carbonyl]piperidine-4-carboxamide], CN(C)CCNC(=O)C1CCN(C(=O)c2cc(-c3ccncc3)[nH]n2)CC1 [N-[2-(dimethylamino)ethyl]-1-[5-(pyridin-4-yl)-1H-pyrazole-3-carbonyl]piperidine-4-carboxamide], CN(C)CCCNC(=O)C1CCN(C(=O)c2cc(-c3ccncc3)[nH]n2)CC1 [N-[3-(dimethylamino)propyl]-1-[5-(pyridin-4-yl)-1H-pyrazole-3-carbonyl]piperidine-4-carboxamide], O=C(NCCCN1CCOCC1)C1CCN(C(=O)c2cc(-c3ccncc3)[nH]n2)CC1 [N-[3-(morpholin-4-yl)propyl]-1-[5-(pyridin-4-yl)-1H-pyrazole-3-carbonyl]piperidine-4-carboxamide], O=C(NC1CCC(CCO)CC1)C1CCN(C(=O)c2cc(-c3ccncc3)[nH]n2)CC1 (stereo not shown) [N-[4-(2-hydroxyethyl)cyclohexyl]-1-[5-(pyridin-4-yl)-1H-pyrazole-3-carbonyl]piperidine-4-carboxamide], Cn1cc(CNC(=O)C2CCN(C(=O)c3cc(-c4ccncc4)[nH]n3)CC2)cn1 [N-[(1-methyl-1H-pyrazol-4-yl)methyl]-1-[5-(pyridin-4-yl)-1H-pyrazole-3-carbonyl]piperidine-4-carboxamide], COc1cc(-c2cc(C(=O)N3CCC(C(=O)NCc4ccc5[nH]cnc5c4)CC3)n[nH]2)c(Cl)cn1 [N-[(1H-1,3-benzodiazol-5-yl)methyl]-1-[5-(5-chloro-2-methoxypyridin-4-yl)-1H-pyrazole-3-carbonyl]piperidine-4-carboxamide], Cc1ccc([C@@H](C)NC(=O)C2CCN(C(=O)c3cc(-c4ccncc4)[nH]n3)CC2)cc1 [N-[(1R)-1-(4-methylphenyl)ethyl]-1-[5-(pyridin-4-yl)-1H-pyrazole-3-carbonyl]piperidine-4-carboxamide], C[C@@H](NC(=O)C1CCN(C(=O)c2cc(-c3ccncc3)[nH]n2)CC1)c1ccc(C(C)(C)C)cc1 [N-[(1R)-1-(4-tert-butylphenyl)ethyl]-1-[5-(pyridin-4-yl)-1H-pyrazole-3-carbonyl]piperidine-4-carboxamide], C[C@@H](NC(=O)C1CCN(C(=O)c2cc(-c3ccncc3)[nH]n2)CC1)c1ccccc1 [N-[(1R)-1-phenylethyl]-1-[5-(pyridin-4-yl)-1H-pyrazole-3-carbonyl]piperidine-4-carboxamide], Cc1ccc([C@H](C)NC(=O)C2CCN(C(=O)c3cc(-c4ccncc4)[nH]n3)CC2)cc1 [N-[(1S)-1-(4-methylphenyl)ethyl]-1-[5-(pyridin-4-yl)-1H-pyrazole-3-carbonyl]piperidine-4-carboxamide], C[C@H](NC(=O)C1CCN(C(=O)c2cc(-c3ccncc3)[nH]n2)CC1)c1ccccc1 [N-[(1S)-1-phenylethyl]-1-[5-(pyridin-4-yl)-1H-pyrazole-3-carbonyl]piperidine-4-carboxamide], CC[C@H](NC(=O)C1CCN(C(=O)c2cc(-c3ccncc3)[nH]n2)CC1)c1ccccc1 [N-[(1S)-1-phenylpropyl]-1-[5-(pyridin-4-yl)-1H-pyrazole-3-carbonyl]piperidine-4-carboxamide], COc1cccc(CNC(=O)C2CCN(C(=O)c3cc(-c4ccncc4)[nH]n3)CC2)c1OC [N-[(2,3-dimethoxyphenyl)methyl]-1-[5-(pyridin-4-yl)-1H-pyrazole-3-carbonyl]piperidine-4-carboxamide], O=C(NCc1cc(Cl)ccc1Cl)C1CCN(C(=O)c2cc(-c3cccnc3)[nH]n2)CC1 [N-[(2,5-dichlorophenyl)methyl]-1-[5-(pyridin-3-yl)-1H-pyrazole-3-carbonyl]piperidine-4-carboxamide], O=C(NCc1cc(Cl)ccc1Cl)C1CCN(C(=O)c2cc(-c3ccncc3)[nH]n2)CC1 [N-[(2,5-dichlorophenyl)methyl]-1-[5-(pyridin-4-yl)-1H-pyrazole-3-carbonyl]piperidine-4-carboxamide], COc1ccc(OC)c(CNC(=O)C2CCN(C(=O)c3cc(-c4ccncc4)[nH]n3)CC2)c1 [N-[(2,5-dimethoxyphenyl)methyl]-1-[5-(pyridin-4-yl)-1H-pyrazole-3-carbonyl]piperidine-4-carboxamide]
